Reference: ChEMBL document CHEMBL1151033, “Tricyclic cephems as inhibitors of human leukocyte elastase. Furo[3,4-c]cepham sulfones” (Bioorg Med Chem Lett, 1995)

Columns and labels:
[1] = Hydrolytic stability at 37 degrees Celsius in 50 mM phosphate buffer (2 % v/v MeCN as solubilising vehicle) at pH 7.4; format: physicochemical
[2] = molecular target: T1, Neutrophil elastase (Homo sapiens) (UniProt P08246); assay: Inhibitory activity against human leukocyte elastase (HLE) expressed as second order inhibition rate constant
T1 sequence (whole entry): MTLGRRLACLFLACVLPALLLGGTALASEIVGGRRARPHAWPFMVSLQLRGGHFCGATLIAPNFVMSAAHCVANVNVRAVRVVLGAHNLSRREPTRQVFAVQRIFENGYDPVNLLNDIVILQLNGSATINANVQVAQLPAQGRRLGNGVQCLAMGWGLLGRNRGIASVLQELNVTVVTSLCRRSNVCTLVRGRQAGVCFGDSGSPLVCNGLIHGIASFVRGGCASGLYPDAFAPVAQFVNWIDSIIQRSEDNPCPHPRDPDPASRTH

SMILES | half-life [1] [days] | k on [2] [M⁻¹ s⁻¹]
CO[C@H]1C(=O)N2C(C(=O)C(C)(C)C)=C(C)CS(=O)(=O)[C@H]12 | 4.33 | 
CO[C@H]1C(=O)N2C(C(=O)c3ccccc3)=C(C)CS(=O)(=O)[C@H]12 | 1.08 | 
CO[C@H]1C(=O)N2c3c(coc3C(C)(C)C)[C@@H](CC(=O)OC(C)(C)C)S(=O)(=O)[C@H]12 |  | 1100
CO[C@H]1C(=O)N2c3c(coc3C(C)(C)C)CS(=O)(=O)[C@H]12 | 7.5 | 500
CO[C@H]1C(=O)N2c3c(coc3C(C)(C)C)[C@@H](C)S(=O)(=O)[C@H]12 | 5.83 | 1000

Next, values leading:

half-life [1] [days] | k on [2] [M⁻¹ s⁻¹] | SMILES
2.96 | 2000 | CO[C@H]1C(=O)N2c3c(coc3-c3ccccc3)CS(=O)(=O)[C@H]12
21.7 | 8800 | CO[C@H]1C(=O)N2c3c(coc3C(C)(C)C)[C@]3(CC3(c3ccccc3)c3ccccc3)S(=O)(=O)[C@H]12
